Experiments:
[1] = test system: wildtype Wnt signaling cascade; test: HEK293 TOP Assay (Super TopFlash luciferase reporter, Wnt-3a stimulated); format: cell-based; details: Homo sapiens, HEK293, 16 h
Method in brief: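 HEK293 cells stably carrying Super TopFlash (TOP) or FOP reporter, stimulated with recombinant human Wnt-3a (2500–5 ng/ml, two-fold steps). Both lines incubated in parallel with compound from 50 μM to 15 nM (3.16-fold) in CAFTY buffer pH 7.4 with 2 mM Ca2+ and 0.01% BSA; selectivity judged TOP vs FOP.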

TNKS2 = target: T1, TNKS2 (Homo sapiens, UniProt Q9H2K2); test: Modified TNKS2 Assay 2 (auto-parsylation, [3H]-NAD+ SPA); format: biochemical; details: 6 nM TNKS2, 96 well
T1 sequence (Q9H2K2 1-1166): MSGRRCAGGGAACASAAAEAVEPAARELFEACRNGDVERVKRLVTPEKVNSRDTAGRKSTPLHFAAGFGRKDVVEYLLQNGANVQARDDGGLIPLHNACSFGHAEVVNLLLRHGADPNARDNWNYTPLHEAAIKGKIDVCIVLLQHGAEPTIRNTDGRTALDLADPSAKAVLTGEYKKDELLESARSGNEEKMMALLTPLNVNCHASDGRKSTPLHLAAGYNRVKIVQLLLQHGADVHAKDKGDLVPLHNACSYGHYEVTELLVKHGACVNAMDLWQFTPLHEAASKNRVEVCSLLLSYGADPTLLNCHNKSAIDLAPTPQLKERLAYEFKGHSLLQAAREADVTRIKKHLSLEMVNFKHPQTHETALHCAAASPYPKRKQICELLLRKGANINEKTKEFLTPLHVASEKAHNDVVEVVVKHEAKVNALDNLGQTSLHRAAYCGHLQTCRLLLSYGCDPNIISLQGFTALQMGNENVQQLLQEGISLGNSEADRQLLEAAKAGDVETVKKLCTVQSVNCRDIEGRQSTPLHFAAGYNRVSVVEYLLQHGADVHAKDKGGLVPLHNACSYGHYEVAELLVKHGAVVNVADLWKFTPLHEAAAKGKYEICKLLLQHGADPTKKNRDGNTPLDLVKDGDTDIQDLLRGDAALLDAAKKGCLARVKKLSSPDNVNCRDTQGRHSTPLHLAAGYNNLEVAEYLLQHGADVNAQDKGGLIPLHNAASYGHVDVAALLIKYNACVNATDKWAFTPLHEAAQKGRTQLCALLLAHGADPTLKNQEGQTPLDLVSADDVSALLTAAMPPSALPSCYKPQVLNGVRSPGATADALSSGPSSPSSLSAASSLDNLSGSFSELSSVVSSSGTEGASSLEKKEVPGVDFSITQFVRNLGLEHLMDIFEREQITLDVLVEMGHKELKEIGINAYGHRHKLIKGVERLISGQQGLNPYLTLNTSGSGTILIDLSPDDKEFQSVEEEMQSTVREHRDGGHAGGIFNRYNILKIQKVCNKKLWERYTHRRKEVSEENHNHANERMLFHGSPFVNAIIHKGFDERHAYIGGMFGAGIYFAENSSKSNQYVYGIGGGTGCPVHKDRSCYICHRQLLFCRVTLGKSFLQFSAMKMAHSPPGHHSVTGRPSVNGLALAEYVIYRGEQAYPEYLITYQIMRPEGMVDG

[2] = HEK293 TOP reporter cell line, Wnt-3a at EC50, 16 hours incubation, compound dilution series 50 μM to 15 nM

Row | Compound | IC50 [1, 2] [nM] | IC50 ([1]; HEK293 TOP reporter cells, Wnt3a at EC50, 16 hours, luciferase) [nM] | IC50 (TNKS2) [nM]
1 | CNC(=O)c1nc[nH]c1C(=O)Nc1ccc(NC(=O)c2cc(Cl)ccc2Cl)cc1 [Example 309, N^5-{4-[(2,5-dichlorobenzoyl)amino]phenyl}-N^4-methyl-1H-imidazole-4,5-dicarboxamide] | 240 |  | 340
2 | C[C@@H]1CCCN(CCNC(=O)c2[nH]cnc2C(=O)Nc2ccc(NC(=O)c3ccc(F)cc3Cl)cc2)C1 [Example 278, N^4-{4-[(2-chloro-4-fluorobenzoyl)amino]phenyl}-N^5-{2-[(3R)-3-methylpiperidin-1-yl]ethyl}-1H-imidazole-4,5-dicarboxamide] | 90 |  | 5

Second part, the compound after the results:

Row | IC50 [1, 2] [nM] | IC50 ([1]; HEK293 TOP reporter cells, Wnt3a at EC50, 16 hours, luciferase) [nM] | IC50 (TNKS2) [nM] | Compound
3 | 140 | 130 | 20 | CN(C)CCNC(=O)c1nc[nH]c1C(=O)Nc1ccc(NC(=O)c2ccc(F)cc2Cl)cc1 [Example 22, N^4-{4-[(2-chloro-4-fluorobenzoyl)amino]phenyl}-N^5-[2-(dimethylamino)ethyl]-1H-imidazole-4,5-dicarboxamide]
4 | 9700 |  | 4800 | CNC(=O)c1nc[nH]c1C(=O)Nc1ccc(NC(=O)c2nccnc2Cl)cc1 [Example 372, N^5-(4-{[(3-chloropyrazin-2-yl)carbonyl]amino}phenyl)-N^4-methyl-1H-imidazole-4,5-dicarboxamide]
5 | 290 |  | 1100 | CN1CC2(C1)CN(C(=O)c1nc[nH]c1C(=O)Nc1ccc(NC(=O)c3ccc(F)cc3Cl)cc1)C2 [Example 46, N-{4-[(2-chloro-4-fluorobenzoyl)amino]phenyl}-4-[(6-methyl-2,6-diazaspiro[3.3]hept-2-yl)carbonyl]-1H-imidazole-5-carboxamide]

— patent publication US9884063B2, “Amido-substituted azole compounds” (Bayer Pharma Aktiengesellschaft, priority 2014, dated 2018)
